From patent US20130084272A1, “COMPOSITIONS, KITS AND METHODS FOR NUTRITIONAL SUPPLEMENTATION WITH TWELVE CARBON CHAIN FATTY ACIDS AND TWELVE CARBON CHAIN ACYLGLYCEROLS” (priority 2011, published 2013)
Like-named read-outs stand apart in the source and are kept apart here.

Key:
[1] = in vivo
Procedure: Fourteen lactating women drink two test formulas, each containing a different fat: menhaden oil, and coconut oil. The subjects collect a midfeeding milk sample before consuming the breakfast test formula and additional samples at 6, 10, 14, and 24 h and then once daily for 4-7 d. Fatty acids of special interest included eicosapentaenoic and docosahexaenoic acids from menhaden oil, and lauric acid from coconut oil.

[2] = Francois et al. 1998; cited from earlier work
[3] = for Lauric acid content of milk: lactating women, baseline 3.9%
Source text: Fifty women will partake in the study. Lactating women aged 19-43 y participate in the study during the first 6 months of lactation. The women remain in the study for about 10 weeks including a 2-wk washout period between consumption of the test fatty acids. The diets of the subjects remain constant during the study. […] Subjects consume the coconut oil composition once in 2-wk intervals. A 40 g coconut oil composition is consumed in the morning by each patient in place of breakfast. Subjects collect milk samples once in the morning before consuming the test formula; once at each of the following time points after consuming the formula: 6, 10, 14, and 24 h; and once daily for 4-7 days.

[4] = system: bacteria; conditions: Batovska et al. 2009; cited from earlier work

Row | Compound | Time of maximum increase in human milk [1] | Time to significant increase in human milk after consumption of the test formula [1] | Time remaining significantly elevated in milk ([1]; human) | Time to significant increase in human milk after consumption by the lactating mother [2] | Milk content of lauric acid over time ([3]; ingestion of formula containing 40 g coconut oil, P<0.001) | Lauric acid content of milk ([3]; 10 h after consuming 40 g coconut oil composition) | Lauric acid content of milk ([3]; 14 hr after consuming 40 g coconut oil composition) | Antibacterial activity among medium chain fatty acids and their monoacylglycerols [4]
1 | CC/C=C\C/C=C\C/C=C\C/C=C\C/C=C\CCCC(=O)O [eicosapentaenoic acid] | 14 h | ≤ 6 h | – | – | – | – | – | –
2 | CC/C=C\C/C=C\C/C=C\C/C=C\C/C=C\C/C=C\CCC(=O)O [docosahexaenoic acid] | 24 h | ≤ 6 h | 2 days | – | – | – | – | –
3 | CCCCCCCCCCCC(=O)O [lauric acid] | 14 h | ≤ 6 h | – | ≤ 6 h | increases | 9.2 % of fatty acids | 9.6 % of fatty acids | –
4 | CCCCCCCCCCCC(=O)OCC(O)CO (stereo not drawn) [monolaurin, glycerol monolaurate] | – | – | – | – | – | – | – | most active
